In patent US10131653B2, “Heterocyclic compound” (TAKEDA PHARMACEUTICAL COMPANY LIMITED, priority 2015, dated 2018):

Legend:
human OX2 receptor = molecular target: T1, human OX2 receptor (Homo sapiens, UniProt O43614); experiment: Measurement of orexin receptor antagonistic activity (calcium fluorescence, FLIPRtetra); type: cell-based; settings: CHO, 10 μM test compound; CHO cells expressing human OX2 receptor; OX-A 0.3 nM; read-out: Human Orexin2 receptor inhibition (at 10 μM)
T1 construct: expressed in transfected cells; host or cells: CHO cells
T1 sequence (O43614 1-444): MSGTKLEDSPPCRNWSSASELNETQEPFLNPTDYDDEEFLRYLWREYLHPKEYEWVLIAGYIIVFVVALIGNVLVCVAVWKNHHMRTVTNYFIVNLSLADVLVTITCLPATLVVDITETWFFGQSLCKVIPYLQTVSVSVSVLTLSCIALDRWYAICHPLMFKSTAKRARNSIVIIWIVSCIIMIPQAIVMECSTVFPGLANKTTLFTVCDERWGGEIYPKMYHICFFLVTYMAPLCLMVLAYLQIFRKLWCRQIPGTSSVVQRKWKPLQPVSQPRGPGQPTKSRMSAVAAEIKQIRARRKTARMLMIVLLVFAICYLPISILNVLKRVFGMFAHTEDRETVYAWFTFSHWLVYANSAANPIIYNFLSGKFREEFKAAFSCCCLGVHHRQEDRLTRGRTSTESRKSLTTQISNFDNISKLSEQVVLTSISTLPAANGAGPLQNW
In short: (§1)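 CHO cells expressing human OX1 or OX2 receptor, cultured one day. Compound in HBSS/20 mM HEPES/0.1% BSA added, then orexin-A at 1 nM final (OX1) or 0.3 nM final (OX2); calcium fluorescence by FLIPRtetra every 1 s for 2 min.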

human OX1 receptor = molecular target: T2, human OX1 receptor (Homo sapiens, UniProt O43613); experiment: as above; type: cell-based; settings: CHO, 10 μM test compound; CHO cells expressing human OX1 receptor; OX-A 1 nM; read-out: Human Orexin1 receptor inhibition (at 10 μM)
T2 construct: expressed in transfected cells; host or cells: CHO cells
T2 sequence (O43613 1-425): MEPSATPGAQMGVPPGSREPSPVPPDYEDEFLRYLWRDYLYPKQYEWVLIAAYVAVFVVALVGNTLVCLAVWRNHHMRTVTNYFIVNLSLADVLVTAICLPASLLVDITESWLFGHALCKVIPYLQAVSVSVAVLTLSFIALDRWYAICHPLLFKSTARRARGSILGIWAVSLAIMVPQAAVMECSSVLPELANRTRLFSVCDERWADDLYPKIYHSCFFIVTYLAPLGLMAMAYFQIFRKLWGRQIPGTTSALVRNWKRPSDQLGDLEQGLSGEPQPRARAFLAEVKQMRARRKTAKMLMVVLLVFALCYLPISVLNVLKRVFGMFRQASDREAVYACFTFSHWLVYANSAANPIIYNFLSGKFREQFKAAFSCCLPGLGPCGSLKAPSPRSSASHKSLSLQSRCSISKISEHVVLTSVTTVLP
In short: as §1

inhibition at 10 µM (human OX2 receptor) [%]	inhibition at 10 µM (human OX1 receptor) [%]	SMILES
101	25	CCc1ccc(-n2nccn2)c(C(=O)N2CCON(c3cc(C)nc(C)n3)CC2)c1 [Example 203, (2-(2,6-dimethylpyrimidin-4-yl)-1,2,5-oxadiazepan-5-yl)(5-ethyl-2-(2H-1,2,3-triazol-2-yl)phenyl)methanone]
101	70	Cc1cc(N2CCN(C(=O)c3ccc(Cl)cc3-n3nccn3)CCO2)nc(C)n1 [Example 204, (4-chloro-2-(2H-1,2,3-triazol-2-yl)phenyl)(2-(2,6-dimethylpyrimidin-4-yl)-1,2,5-oxadiazepan-5-yl)methanone]
100	82	Cc1cc(N2CCN(C(=O)c3ccc(Br)cc3-n3nccn3)C[C@H](C)O2)nc(C)n1 [Example 205, (4-bromo-2-(2H-1,2,3-triazol-2-yl)phenyl)((7S)-2-(2,6-dimethylpyrimidin-4-yl)-7-methyl-1,2,5-oxadiazepan-5-yl)methanone]
100	28	Cc1nccc(N2CCN(C(=O)c3ccccc3-c3ncccn3)C[C@H](C)O2)n1 [Example 206, ((7S)-7-methyl-2-(2-methylpyrimidin-4-yl)-1,2,5-oxadiazepan-5-yl)(2-(pyrimidin-2-yl)phenyl)methanone]
81	25	COC(=O)c1cc(N2CCN(C(=O)c3cc(Cl)ccc3-n3nccn3)C[C@H](C)O2)nc(C)n1 [Example 207, methyl 6-((7S)-5-(5-chloro-2-(2H-1,2,3-triazol-2-yl)benzoyl)-7-methyl-1,2,5-oxadiazepan-2-yl)-2-methylpyrimidine-4-carboxylate]
14	8	CCOC(=O)c1cc(N2CCN(C(=O)c3cc(Cl)ccc3-n3nccn3)C[C@H](C)O2)nc(C)n1 [Example 208, ethyl 6-((7S)-5-(5-chloro-2-(2H-1,2,3-triazol-2-yl)benzoyl)-7-methyl-1,2,5-oxadiazepan-2-yl)-2-methylpyrimidine-4-carboxylate]
18	-12	Cc1cc(N2CCN(C(=O)c3ccccc3C#N)C[C@H](C)O2)nc(C)n1 [Example 209, 2-(((7S)-2-(2,6-dimethylpyrimidin-4-yl)-7-methyl-1,2,5-oxadiazepan-5-yl)carbonyl)benzonitrile]
97	51	Cc1cc(N2CCN(C(=O)c3c(F)cccc3-n3nccn3)C[C@H](C)O2)nc(C)n1 [Example 210, ((7S)-2-(2,6-dimethylpyrimidin-4-yl)-7-methyl-1,2,5-oxadiazepan-5-yl)(2-fluoro-6-(2H-1,2,3-triazol-2-yl)phenyl)methanone]
80	21	Cc1cc(N2CCN(C(=O)c3ccc(Cl)cc3-n3ccnn3)C[C@H](C)O2)nc(C)n1 [Example 211, (4-chloro-2-(1H-1,2,3-triazol-1-yl)phenyl)((7S)-2-(2,6-dimethylpyrimidin-4-yl)-7-methyl-1,2,5-oxadiazepan-5-yl)methanone]
102	47	Cc1cc(N2CCN(C(=O)c3ccccc3-c3ncccn3)[C@H](C)CO2)nc(C)n1 [Example 213, ((6R)-2-(2,6-dimethylpyrimidin-4-yl)-6-methyl-1,2,5-oxadiazepan-5-yl)(2-(pyrimidin-2-yl)phenyl)methanone]
103	55	Cc1nc(N2CCN(C(=O)c3ccccc3-c3ncccn3)[C@H](C)CO2)cc(C(F)(F)F)n1 [Example 214, ((6R)-6-methyl-2-(2-methyl-6-(trifluoromethyl)pyrimidin-4-yl)-1,2,5-oxadiazepan-5-yl)(2-(pyrimidin-2-yl)phenyl)methanone]
102	40	Cc1ncc(Cl)c(N2CCN(C(=O)c3cc(Cl)ccc3-n3nccn3)[C@H](C)CO2)n1 [Example 215, ((6R)-2-(5-chloro-2-methylpyrimidin-4-yl)-6-methyl-1,2,5-oxadiazepan-5-yl)(5-chloro-2-(2H-1,2,3-triazol-2-yl)phenyl)methanone]
